# In PMC7326067, “The Critical Role of Tryptophan in the Antimicrobial Activity and Cell Toxicity of the Duck Antimicrobial Peptide DCATH” (Frontiers in Microbiology, 2020):
# Where no end group is shown, it is not given here.
# What was measured:
# [1] = tested on: E. coli ATCC 25922; assay type: cell-based, Escherichia coli; details: ATCC 25922, 24 h
# Description: (§1) Three types of Gram-positive bacteria (Staphylococcus epidermidis ATCC 12228, Staphylococcus aureus 29213 and Enterococcus faecalis ATCC 29212) and four types of Gram-negative bacteria (Escherichia coli UB1005, Escherichia coli ATCC 25922, Salmonella typhimurium ATCC 14028 and Salmonella pullorum C79–13) preserved in our lab were cultured in the medium of Muller-Hinton broth (MHB) medium (1.75% casamino acid, 0.2% beef extract, 0.15% soluble starch, pH 7.0). The murine macrophage cell line RAW 264.7 cells were procured from the American Type Culture Collection (Manassas, VA, United States) and cultured in DMEM containing 10% fetal bovine serum […], penicillin (100 units/ml) and streptomycin (100 units/ml) in 5% CO2 at 37°C.
# (§2) The antimicrobial activity of peptides was examined against representative strains of Gram-positive bacteria (S. aureus ATCC 29213, S. epidermidis ATCC 12228 and E. faecalis ATCC 29212) and Gram-negative bacteria (E. coli ATCC 25922, E. coli UB1005, S. pullorum C79–13, and S. typhimurium ATCC 14028) which were cultured in MHB medium. Antimicrobial activity assay was performed according to a modified version of broth microdilution method ([Gao et al., 2015]). When grown to an OD600 of 0.4, the bacterial stains cultured in MHB were diluted to a final concentration of about 1 × 10^5 CFU/ml. Fifty microliter of microbial solution and 50 μl of two-fold diluted concentrations of peptides [0.2% (w/v) bovine serum albumin, 0.01% (v/v) acetic acid] were mixed in the sterile 96-well plate and cultured at 37°C for 24 h. MICs were identified as the lowest peptide concentration that no bacteria growth was observed by OD determination (492 nm). Each experiment was performed in triplicate. The geometric mean (GM) of the MICs of a peptide was calculated on the MIC values of the peptide against all tested bacteria, and was used to evaluate the antimicrobial activity of the peptide. The therapeutic index (TI) was defined as the ratio of the minimum hemolytic concentration (MHC) to the GM and was used to measure the peptide cell selectivity toward the component with negative charge of bacterial cell membranes over the zwitterionic membranes mammalian cells. TI was calculated as the ratio of the HC10 (the peptide concentration needed to reach 10% lysis of hRBCs) value to the GM (TI = HC10/GM).
# [2] = tested on: E. coli UB1005; assay type: cell-based, Escherichia coli; details: UB1005, 24 h
# Description: as §1, §2
# [3] = tested on: S. pullorum C79-13; assay type: cell-based, Salmonella pullorum; details: C79-13, 24 h
# Description: as §1, §2
# [4] = tested on: S. typhimurium ATCC 14028; assay type: cell-based, Salmonella typhimurium; details: ATCC 14028, 24 h
# Description: as §1, §2
# [5] = tested on: S. aureus ATCC 29213; assay type: cell-based, Staphylococcus aureus; details: ATCC 29213, 24 h
# Description: as §1, §2
# [6] = tested on: S. epidermidis ATCC 12228; assay type: cell-based, Staphylococcus epidermidis; details: ATCC 12228, 24 h
# Description: as §1, §2
# [7] = tested on: E. faecalis ATCC 29212; assay type: cell-based, Enterococcus faecalis; details: ATCC 29212, 24 h
# Description: as §1, §2
# [8] = tested on: all tested bacteria; experiment: MIC over all tested bacteria (geometric mean); assay type: cell-based; details: calculated on the MIC values against all tested bacteria (7 strains)
# Description: as §1, §2
# [9] = tested on: Human red blood cells (hRBCs); assay type: cell-based; details: for MHC (minimum hemolytic concentration): red cells of human, 1 h
# Description: The hemolytic activity assay of these peptides was performed according to the method of [Gao et al. (2015)]. Human red blood cells (hRBCs) donated by a healthy adult were collected by centrifugation and washed by phosphate-buffered saline (PBS) solution (pH 7.2). 1% (v/v) suspension of hRBCs in PBS was incubated with different concentrations of peptides dissolved in PBS for 1 h at 37°C. Absorbance in the supernatant was monitored at 405 nm. hRBCs in 0.1% Triton X-100 and PBS were used as positive and negative controls, respectively. The hemolysis percentage was calculated as follows:
# %hemolysis=[A-sampleA]blank/[A-TritonA]blank×100.
# FIGURE 1 Hemolytic and toxicity activity of the peptides. (A,B) Hemolytic activity against hRBCs. (C,D) Toxicity activity against RAW264.7 cells. Hemolytic activity was evaluated by incubating individual peptides in serial 2-fold dilutions with freshly isolated hRBCs at 37°C for 1 h, followed by measuring the released hemoglobin at 405 nm. For negative and positive controls, hRBCs in PBS and 0.1% Triton X-100 were used, respectively. Toxicity activity of the peptides against RAW264.7 was determined using MTT method. The peptides were incubated with RAW264.7 in a 96-well microtiter plate. After incubation with MTT, the supernatant was discarded and DMSO was added and the optical density (OD) at 570 nm was measured.
# [10] = tested on: BALB/c mice challenged with lethal dose of LPS; experiment: Protection of mice from LPS-induced lethal infection; assay type: in vivo; details: male BALB/c mice, LPS 20 mg/kg i.p.; PMB 2.5 mg/kg or peptide 10 mg/kg i.p. 1 h after challenge
# Description: The 6–8 week-old male BALB/c mice (purchased from Charles River Laboratories, Beijing, China) were used to investigate the protective effect in vivo of peptides on LPS-induced infection. All animals were raised under specific pathogen-free conditions and the protocol was authorized by the Animal Care Committee of Northeast Agricultural University. Mice were divided into four groups (12 mice per group). 1 h after a challenge with a lethal dose of LPS intraperitoneal injection (20 mg/kg⋅body weight), 4 groups of mice were injected intraperitoneally with 0.5 ml PBS, PMB (2.5 mg/kg⋅body weight), dCATH(1–16) or dCATH(5–20) (10 mg/kg⋅body weight). General behavior, onset and course of clinical disease and mortality of mice were observed every 12 h for a period of 7 days.
# FIGURE 8 Survival of mice from LPS-induced lethal infection by dCATH(1–16) or dCATH(5–20). Mice were subjected to a lethal dose of LPS, followed by i.p. injection of CATH(1–16) or dCATH(5–20) at 10 mg/kg or an equal volume of PBS as controls (n = 12). Survival was recorded every 12 h over 7 days.
Substance,MIC E. coli ATCC 25922 [1] [µM],MIC E. coli UB1005 [2] [µM],MIC S. pullorum C79-13 [3] [µM],MIC S. typhimurium ATCC 14028 [4] [µM],MIC S. aureus ATCC 29213 [5] [µM],MIC S. epidermidis ATCC 12228 [6] [µM],MIC E. faecalis ATCC 29212 [7] [µM],GM (geometric mean of the MICs) [8] [µM],hemolytic activity (in words) [9],MHC (minimum hemolytic concentration) [9] [µM],onset and symptoms of disease (in words) [10]
FWQLVPLAIKIYRAWKRR-NH2 [dCATH(3–20)],1,2,2,4,2,1,2,1.81,obvious hemolytic activity,4,–
KRFAQLVPLAIKIYRA-NH2 [dCATH(1–16)-4A],16,32,64,64,128,64,32,47.55,negligible hemolytic activity,–,–
KRFAQLVPLAIKIYRAAKRR-NH2 [dCATH-AA],32,16,32,64,64,64,32,39.01,negligible hemolytic activity,–,–
KRFWQLVPLAIKIYRA-NH2 [dCATH(1–16)],2,4,4,4,8,8,8,4.88,–,–,–
KRFWQLVPLAIKIYRAW-NH2 [dCATH(1–17)],1,1,4,4,2,4,2,2.21,obvious hemolytic activity,8,–
KRFWQLVPLAIKIYRAWK-NH2 [dCATH(1–18)],1,2,2,2,2,2,2,1.81,obvious hemolytic activity,8,–
KRFWQLVPLAIKIYRAWKRR-NH2 [dCATH],2,2,4,8,4,4,4,3.62,obvious hemolytic activity,4,–
QLVPLAIKIYRA-NH2 [dCATH(5–16)],64,128,–,–,–,–,–,190.21,negligible hemolytic activity,–,–
QLVPLAIKIYRAAKRR-NH2 [dCATH(5–20)-17A],64,–,–,64,32,32,32,70.66,negligible hemolytic activity,–,–
QLVPLAIKIYRAWKRR-NH2 [dCATH(5–20)],1,4,8,4,2,4,4,3.28,–,128,–
WQLVPLAIKIYRAWKRR-NH2 [dCATH(4–20)],1,4,4,2,2,4,2,2.44,obvious hemolytic activity,16,–
polymyxin B [PMB],–,–,–,–,–,–,–,–,–,–,delayed the onset of disease of mice with less severe symptoms
